Experimental data as given in patent publication US20070225202A1, “Methods for Identifying Modulators of Active Kit Tyrosine Kinase Receptor” (priority 2003, published 2007).

Key:
[1] = system: KITD814V and KITD814Y; details: KITD814V and KITD814Y expressed in transfected cells; cited from earlier work
[2] = system: KIT816 mutants; details: previous studies; cited from earlier work
[3] = system: HMC1.1 cells (naturally expressing KITV560G); assay: cells; details: Homo sapiens, 72 h, read-out: inhibition of proliferation
Protocol: The cell-viability assay was performed using an ATPlite™ assay (PerkinElmer Life Sciences, Boston, Mass.), according to the manufacturer's protocol. […] Cells were incubated for 72 hours in the presence or absence of KIT inhibitors and cell viability measured

[4] = system: constitutively active KIT mutants exhibiting mutations in the juxtamembrane domain; details: cited from earlier work

SMILES: Cc1ccc(-c2nn(C(C)(C)C)c3ncnc(N)c23)cc1 [PP1]
- inhibition of activated KIT receptors [1]: act as inhibitors of activated KIT receptors

SMILES: Cc1ccc(NC(=O)c2ccc(CN3CCN(C)CC3)cc2)cc1Nc1nccc(-c2cccnc2)n1 [Gleevec]
- effectiveness against KIT816 mutants [2]: ineffective
- inhibition at 0.1 µM [3]: ~80%
- inhibition of constitutively active KIT mutants [4]: inhibit constitutively active KIT mutants

SMILES: CC(C)(C)n1nc(-c2ccc(Cl)cc2)c2c(N)ncnc21 [PP2]
- inhibition of activated KIT receptors [1]: act as inhibitors of activated KIT receptors
